“Also recorded” adds a separate entry of the source.
How the values were obtained:
PIN2 localization = PIN2 localization in root cells of PIN2::PIN2:GFP seedlings; settings: for induction of PIN2 agglomerations / PIN2 localization: 40 μM, 2 hours
[1] = target: T1, EXO70A1 (amino acid residues 75-638) (Arabidopsis thaliana, UniProt Q9LZD3); test: STD-NMR of ES2 / analog8 with purified EXO70A1; assay type: binding; settings: EXO70A1, non-linear fit, read-out: Kd (mean ± SE)
T1 sequence (Q9LZD3 75-638): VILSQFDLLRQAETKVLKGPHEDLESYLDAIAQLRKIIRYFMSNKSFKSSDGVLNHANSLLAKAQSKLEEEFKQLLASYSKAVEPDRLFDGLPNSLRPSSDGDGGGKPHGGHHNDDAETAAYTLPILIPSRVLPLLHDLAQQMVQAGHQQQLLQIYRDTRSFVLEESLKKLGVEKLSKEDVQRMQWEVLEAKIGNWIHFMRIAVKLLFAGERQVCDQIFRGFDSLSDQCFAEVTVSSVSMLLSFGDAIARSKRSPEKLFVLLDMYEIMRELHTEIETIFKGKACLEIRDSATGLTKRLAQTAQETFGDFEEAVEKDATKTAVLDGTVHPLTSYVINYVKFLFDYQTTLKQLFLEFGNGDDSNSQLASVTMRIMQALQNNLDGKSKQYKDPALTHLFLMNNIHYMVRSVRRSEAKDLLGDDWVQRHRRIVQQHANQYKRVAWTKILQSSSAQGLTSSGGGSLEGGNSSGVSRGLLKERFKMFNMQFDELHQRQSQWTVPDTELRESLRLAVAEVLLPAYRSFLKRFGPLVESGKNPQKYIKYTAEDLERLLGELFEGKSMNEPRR

[2] = Stability of ES2 in water by 1H NMR; assay type: physicochemical; settings: 1H NMR over one week
Protocol: The ES2 molecule contains an N-acyl hydrazone group at its core, and could have the propensity for hydrolysis to 3-fluorobenzohydrazide and 4-hydroxy-3-iodo-5-methoxybenzaldehyde in aqueous solution (FIG. 10A). […] In addition, the activity of the two possible ES2 hydrolysis products in inducing PIN2 localization in late endosomal compartments was tested.

EXO70A1 = target: T2, EXO70A1 (Arabidopsis thaliana, UniProt Q9LZD3); assay type: binding; settings: in comparison to Bio-680 matrix and biotin controls
T2 construct: protein extracts from 16 days old seedlings grown from normal 0.5×MS agar media; from tissue; host or cells: Arabidopsis seedlings (16 days old), 16,000×g supernatant
T2 sequence (Q9LZD3 1-638): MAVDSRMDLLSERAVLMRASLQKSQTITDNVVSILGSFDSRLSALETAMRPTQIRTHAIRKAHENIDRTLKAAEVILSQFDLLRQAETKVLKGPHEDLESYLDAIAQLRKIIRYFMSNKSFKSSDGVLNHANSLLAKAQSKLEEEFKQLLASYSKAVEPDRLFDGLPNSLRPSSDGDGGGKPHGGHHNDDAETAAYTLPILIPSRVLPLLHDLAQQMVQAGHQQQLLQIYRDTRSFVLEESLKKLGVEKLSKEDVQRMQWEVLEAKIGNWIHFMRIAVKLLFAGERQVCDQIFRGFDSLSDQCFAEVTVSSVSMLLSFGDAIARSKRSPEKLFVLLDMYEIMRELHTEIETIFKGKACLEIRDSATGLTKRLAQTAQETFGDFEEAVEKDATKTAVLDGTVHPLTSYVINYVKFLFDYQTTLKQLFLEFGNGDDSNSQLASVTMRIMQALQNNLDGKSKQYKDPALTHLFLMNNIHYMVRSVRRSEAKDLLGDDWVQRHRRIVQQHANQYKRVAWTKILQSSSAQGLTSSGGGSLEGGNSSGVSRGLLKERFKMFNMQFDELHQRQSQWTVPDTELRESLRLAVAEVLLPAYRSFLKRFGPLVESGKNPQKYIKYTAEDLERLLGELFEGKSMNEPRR

COc1cc(/C=N/NC(=O)c2ccc(NC(=O)CCCC[C@@H]3SC[C@@H]4NC(=O)N[C@@H]43)cc2)ccc1O [Bio-680, N-(4-((E)-2-(4-hydroxy-3-methoxybenzylidene)hydrazinecarbonyl)phenyl)-5-((3aS,4S,6aR)-2-oxohexahydro-1H-thieno[3,4-d]imidazol-4-yl)pentanamide]
induction of PIN2 agglomerations / PIN2 localization (PIN2 localization): inactive; also recorded: did not

COc1cc(/C=N/NC(=O)c2ccc(N)cc2)ccc1O [Ana-680, 4-Amino-N′-[(E)-(4-hydroxy-3-methoxyphenyl)methylidene]benzohydrazide]
induction of PIN2 agglomerations / PIN2 localization (PIN2 localization): did not

COc1cc(/C=N/NC(=O)c2cccc(F)c2)cc(I)c1O [ES2]
Kd [1]: 400 ± 170 µM | maximum feret diameter of PIN2-localized compartments (PIN2 localization; 40 μM ES2, 2 hours, light): 2.9 μm | minimal feret diameter of PIN2-localized compartments (PIN2 localization; 40 μM ES2, 2 hours, light): 0.4 μm | feret diameter of PIN2-localized compartments (mean±SD) (PIN2 localization; 40 μM ES2, 2 hours, light, N=391): 1.18±0.47 μm | stability in water solution (hydrolysis) [2]: no hydrolysis products were observed

COc1cc(/C=N/NC(=O)c2ccc(NC(=O)CCCC[C@@H]3SC[C@@H]4NC(=O)N[C@@H]43)c(F)c2)cc(I)c1O [Bio-688, N-(2-fluoro-4-((E)-2-(4-hydroxy-3-iodo-5-methoxybenzylidene)hydrazinecarbonyl)phenyl)-5-((3aS,4S,6aR)-2-oxohexahydro-1H-thieno[3,4-d]imidazol-4-yl)pentanamide]
induction of PIN2 agglomerations / PIN2 localization (PIN2 localization): active; also recorded: induced PIN2 agglomerations | pull down of EXO70A1 (western blot band intensity) (EXO70A1): more potent in pulling down EXO70A1

COc1cc(/C=N/NC(=O)c2ccc(N)c(F)c2)cc(I)c1O [Ana-688, 4-Amino-3-fluoro-N′-[(E)-(4-hydroxy-3-iodo-5-methoxyphenyl)methylidene]benzohydrazide]
induction of PIN2 agglomerations / PIN2 localization (PIN2 localization): induced PIN2 agglomerations

Reference: patent US20180362449A1, “THE EXOCYST AS A NOVEL DRUG TARGET OF ENDOSIDIN2 AND APPLICATION AS A THERAPEUTIC” (The Regents of the University of California, priority 2015, published 2018)
